Data taken from ChEMBL document CHEMBL1136100, “4-Aminopiperidine derivatives as a new class of potent cognition enhancing drugs” (2003).

Tests used:
Assay type in all cases: functional
Mus musculus [1] = species on record: Mus musculus; experiment: Cognition enhancing activity was evaluated by mouse passive-avoidance test using Scopolamine as amnesing drug after 1st day
Mus musculus [2] = species on record: Mus musculus; experiment: Cognition enhancing activity was evaluated by mouse passive-avoidance test using Scopolamine as amnesing drug after 2nd day
Mus musculus [3] = species on record: Mus musculus; experiment: Difference between entry latency of cognition enhancing activity between 2nd day and 1st day
Mus musculus [4] = experiment: Cognition enhancing activity was evaluated by mouse passive-avoidance test using Scopolamine as amnesing drug administered intraperitoneally

## CC(=O)N1CCC(NS(=O)(=O)C(C)C)CC1
Mus musculus [1]
  Entry latency: 15.1 s
Mus musculus [2]
  Entry latency: 99.3 s
Mus musculus [3]
  Entry latency: 84.2 s
Mus musculus [4]
  Min effective dose: 10 mg/kg

## CC(=O)NC1CCN(S(=O)(=O)C(C)C)CC1
Mus musculus [1]
  Entry latency: 14.3 s
Mus musculus [2]
  Entry latency: 89.7 s
Mus musculus [3]
  Entry latency: 75.4 s
Mus musculus [4]
  Min effective dose: 1 mg/kg

## CCC(=O)N1CCN(S(=O)(=O)c2ccc(F)cc2)CC1
Mus musculus [4]
  Min effective dose: 0.01 mg/kg

## CCC(=O)NC1CCN(C(=O)c2ccccc2)CC1
Mus musculus [1]
  Entry latency: 18 s
Mus musculus [2]
  Entry latency: 121 s
Mus musculus [3]
  Entry latency: 103 s
Mus musculus [4]
  Min effective dose: 0.1 mg/kg

## CCC(=O)N1CCC(NS(=O)(=O)c2ccc(F)cc2)CC1
Mus musculus [1]
  Entry latency: 15.6 s
Mus musculus [2]
  Entry latency: 108.2 s
Mus musculus [3]
  Entry latency: 103 s
Mus musculus [4]
  Min effective dose: 10 mg/kg

## CC(=O)NC1CCN(S(=O)(=O)c2ccc(F)cc2)CC1
Mus musculus [1]
  Entry latency: 14.5 s
Mus musculus [2]
  Entry latency: 90.6 s
Mus musculus [3]
  Entry latency: 76.1 s
Mus musculus [4]
  Min effective dose: 0.01 mg/kg

## CC(=O)N1CCN(C(=O)c2ccccc2)CC1
Mus musculus [4]
  Min effective dose: 10 mg/kg

## CCC(=O)N1CCC(NC(=O)c2ccccc2)CC1
Mus musculus [1]
  Entry latency: 19.7 s
Mus musculus [2]
  Entry latency: 122.8 s
Mus musculus [3]
  Entry latency: 103.1 s
Mus musculus [4]
  Min effective dose: 0.1 mg/kg

## CC(=O)N1CCN(S(=O)(=O)c2ccc(F)cc2)CC1
Mus musculus [4]
  Min effective dose: 0.01 mg/kg

## CCC(=O)NC1CCN(S(=O)(=O)C(C)C)CC1
Mus musculus [1]
  Entry latency: 14.2 s
Mus musculus [2]
  Entry latency: 102.8 s
Mus musculus [3]
  Entry latency: 88.6 s
Mus musculus [4]
  Min effective dose: 10 mg/kg

## CN1[C@@H]2C[C@@H](OC(=O)[C@H](CO)c3ccccc3)C[C@H]1[C@@H]1O[C@@H]12 [SCOPOLAMINE]
Mus musculus [2]
  Entry latency: 44.5 s
Mus musculus [3]
  Entry latency: 27.9 s
Mus musculus [4]
  Min effective dose: 1.5 mg/kg

## CC(=O)N1CCC(NS(=O)(=O)c2ccc(F)cc2)CC1
Mus musculus [1]
  Entry latency: 23.5 s
Mus musculus [2]
  Entry latency: 126.8 s
Mus musculus [3]
  Entry latency: 92.6 s
Mus musculus [4]
  Min effective dose: 0.1 mg/kg

## CCC(=O)NC1CCN(S(=O)(=O)c2ccc(F)cc2)CC1
Mus musculus [1]
  Entry latency: 17.6 s
Mus musculus [2]
  Entry latency: 103.4 s
Mus musculus [3]
  Entry latency: 85.8 s
Mus musculus [4]
  Min effective dose: 0.1 mg/kg

## CCC(=O)N1CCC(NS(=O)(=O)C(C)C)CC1
Mus musculus [1]
  Entry latency: 14.5 s
Mus musculus [2]
  Entry latency: 96.9 s
Mus musculus [3]
  Entry latency: 82.4 s
Mus musculus [4]
  Min effective dose: 10 mg/kg

## CC(=O)NC1CCN(C(=O)c2ccccc2)CC1
Mus musculus [1]
  Entry latency: 12.8 s
Mus musculus [2]
  Entry latency: 113.5 s
Mus musculus [3]
  Entry latency: 100.7 s
Mus musculus [4]
  Min effective dose: 10 mg/kg

## CCC(=O)N1CCN(C(=O)c2ccccc2)CC1
Mus musculus [4]
  Min effective dose: 0.01 mg/kg

## NC(=O)CN1CCCC1=O
Mus musculus [4]
  Min effective dose: 30 mg/kg
